“Also recorded” adds a separate entry of the source.
Tested on: ES-2/Fluc ovarian cancer cells
Experiment: ES-2/Fluc ovarian cancer model in SCID mice: whole body bioluminescence after daily i.p. RD-Sindbis/tk and GCV
Assay type: in vivo
Description: In the example below, SCID mice were intraperitoneally implanted with ES2 human ovarian cancer cells. In order to track and monitor disease progression, the ES2 cells were genetically engineered to express a firefly luciferase gene for bioluminescent imaging. Therefore, the bioluminescent signal intensity is proportional to the tumor load in these animals (FIG. 3B). Tumor-bearing mice were either mock treated or received daily treatments with a conventional RD-Sindbis/HSVtk vector.
An ES-2/Fluc ovarian cancer model was used to test if the HSVtk suicide gene enhanced the therapeutic effects of Sindbis vectors. […] SCID mice were inoculated with ES-2/Fluc on day 0. Daily GDEPT treatments involving i.p. injections of RD-Sindbis/tk and GCV (25 mg/Kg of body weight) were started on day 3. The Sindbis/tk −GCV group (n=5) received Sindbis/tk treatments but no GCV. The Sindbis/tk +GCV group (n=5) received both Sindbis/tk and GCV treatments. The Control group (n=5) was neither treated with Sindbis/tk nor GCV. The Control +GCV group (n=5) received no Sindbis/tk but was treated with GCV. Disease progression was monitored and the whole body photon counts were determined using the IVIS® system on days 1, 3, 6, 8, 12 and 14.

Nc1nc(O)c2ncn(COC(CO)CO)c2n1 [GCV, ganciclovir] was tested, and the “effect of prodrug on tumor growth / tumor killing together with vector” value (GCV 25 mg/Kg daily i.p. together with daily i.p. RD-Sindbis/HSVtk from day 3) was “significantly improved anti-tumor efficacy; also recorded: dramatically enhanced the Sindbis HSVtk vector treatments and suppressed tumor growth; also recorded: enhanced the killing of Sindbis/tk-infected ES-2/Fluc cells in vivo” and the “therapeutic effect on tumor loading” value (GCV 25 mg/Kg daily i.p. without HSVtk expression (no Sindbis/tk)) was “no therapeutic effect”.

— US8282916B2, “Tumor therapy with replication competent sindbis viral vectors” (New York University, priority 2008, dated 2012)
